Measurements as given in ChEMBL document CHEMBL5244277, “A review upon medicinal perspective and designing rationale of DPP-4 inhibitors” (Bioorg Med Chem, 2021).
One block for each molecule: values may come before it.

Tests used:
[1] = target: T1, Dipeptidyl peptidase 4 (Homo sapiens, UniProt P27487)
Target sequence in this assay (P27487 whole entry): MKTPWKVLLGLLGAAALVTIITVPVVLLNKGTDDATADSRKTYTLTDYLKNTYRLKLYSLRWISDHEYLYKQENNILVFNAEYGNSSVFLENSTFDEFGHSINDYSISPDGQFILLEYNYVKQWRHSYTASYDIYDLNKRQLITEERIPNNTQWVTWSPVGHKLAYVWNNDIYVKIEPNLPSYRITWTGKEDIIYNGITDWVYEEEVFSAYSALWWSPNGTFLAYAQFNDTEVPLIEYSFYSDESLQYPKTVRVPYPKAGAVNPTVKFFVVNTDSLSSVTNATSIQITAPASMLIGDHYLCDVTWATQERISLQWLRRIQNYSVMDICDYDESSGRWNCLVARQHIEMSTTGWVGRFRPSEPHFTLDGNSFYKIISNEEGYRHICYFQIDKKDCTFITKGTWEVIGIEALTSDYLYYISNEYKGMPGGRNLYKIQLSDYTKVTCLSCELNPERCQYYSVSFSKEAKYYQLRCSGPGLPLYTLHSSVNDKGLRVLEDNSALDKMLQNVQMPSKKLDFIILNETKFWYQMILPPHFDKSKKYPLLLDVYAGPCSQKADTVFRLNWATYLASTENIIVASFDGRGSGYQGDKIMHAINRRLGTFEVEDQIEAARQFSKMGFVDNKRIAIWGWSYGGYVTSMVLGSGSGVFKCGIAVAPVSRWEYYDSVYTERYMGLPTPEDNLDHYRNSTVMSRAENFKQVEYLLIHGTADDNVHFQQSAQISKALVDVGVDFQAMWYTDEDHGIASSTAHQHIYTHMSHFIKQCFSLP

[2] = target: T1, Dipeptidyl peptidase 4; type: cell-based, Caco-2
Target sequence in this assay (P27487 whole entry): as above

[3] = target: T1, Dipeptidyl peptidase 4; test: Inhibition of DPP4 (unknown origin) using Gly-Pro-AMC as substrate incubated for 30 mins by spectroscopic analysis
Target sequence in this assay (P27487 whole entry): as above

[4] = test system: Rattus norvegicus; test: Antihyperglycemic activity in STZ-induced diabetic rat model assessed as reduction in blood glucose level at 100 mg/kg, po measured upto 24 hrs; type: functional; design: scale not given: the % may be the effect or the level left
[5] = species on record: Homo sapiens; test: Selectivity index, ratio of IC50 for DPP-4 (unknown origin) to IC50 for DPP-8 (unknown origin)
[6] = Half life in mouse; type: ADME, organism-based; details: in vivo
[7] = target: T1, Dipeptidyl peptidase 4; test: Inhibition of DPP-4 (unknown origin) at 100 uM relative to control
Target sequence in this assay (P27487 whole entry, looked up): as the sequence (P27487 whole entry) above

[8] = target: T1, Dipeptidyl peptidase 4; test: Inhibition of human recombinant DPP-4 at 100 uM using Gly-Pro-Aminomethylcoumarin as substrate by Spectra max fluorometer analysis relative to control
Target sequence in this assay (P27487 whole entry, looked up): as the sequence (P27487 whole entry) above

[9] = target: T1, Dipeptidyl peptidase 4; remark: listed apart in the source
Target sequence in this assay (P27487 whole entry): as above

[10] = AUC in C57BL/6J mouse at 20 mg/kg, po; type: ADME, organism-based; design: dose 20 mg/kg, route po; details: in vivo

SMILES: CC#CCn1c(N2CCC[C@@H](N)C2)cc(=O)n(Cc2cn(-c3ccccc3)nn2)c1=O
IC50 [1]: 185 nM

SMILES: COC(=O)c1cn([C@@H]2CC[C@H](C(=O)N3CCC(F)(F)C3)C2)nn1
IC50 [3]: 720 nM

SMILES: O=C([C@H]1CC[C@@H](n2cc(-c3ccccc3O)nn2)C1)N1CCC(F)(F)C1
IC50 [3]: 620 nM

SMILES: O=C(CN1CCN(c2ccccn2)CC1)N1CCSC1
Activity [4]: 18.4%

SMILES: N#Cc1ccc(C2=NNc3nc(Br)nn3C2)cc1
inhibition [7]: 48.3%

SMILES: CCOC(=O)c1ccc2cc(OCC(=O)N3CCOCC3)c(=O)oc2c1
inhibition [8]: 1.3%

SMILES: O=C([C@H]1CC[C@@H](n2cc(-c3ccc(-c4ccccc4)cc3)nn2)C1)N1CCC(F)(F)C1
IC50 [3]: 660 nM

SMILES: Cc1c(-c2cc(S(=O)(=O)c3ccccc3)n[nH]2)c(=O)n(C)n1C
IC50 [9]: < 15 nM

SMILES: COC(=O)c1ccc2cc(OCC(=O)Nc3ccc(C)cc3)c(=O)oc2c1
inhibition [8]: 1.3%

SMILES: Cc1ccc(NC(=O)CNc2cc3ccc4ccccc4c3oc2=O)cc1
inhibition [8]: 26.7%

SMILES: CO/N=C1\CN(c2nc3c(cc2F)c(=O)c(C(=O)O)cn3C2CC2)CC1CN (stereo unspecified) [GEMIFLOXACIN]
IC50 [9]: 2700 nM

SMILES: O=C(CNc1cc2ccc3ccccc3c2oc1=O)Nc1ccc(Cl)cc1
inhibition [8]: 26.7%

SMILES: CCOC(=O)c1ccc2cc(OCC(=O)N3CCCCC3)c(=O)oc2c1
inhibition [8]: 1.3%

SMILES: COc1ccc(CCNC(=S)N/C=C2\C(=O)Oc3ccccc3C2=O)cc1OC
inhibition [7]: > 50%

SMILES: O=C(CNc1cc2ccc3ccccc3c2oc1=O)Nc1ccc(F)cc1
inhibition [8]: 26.7%

SMILES: COC(=O)C1=C(C)N=C2CC(C)C3(Oc4c(Cl)c(OC)cc(OC)c4C3=O)C(O)=C2C1c1cc2cccc3c2n(c1=O)CCC3 (stereo unspecified)
inhibition [7]: > 50%

SMILES: O=C(CN1CCN(c2ccnc3cc(Cl)ccc23)CC1)N1CCOCC1
Activity [4]: 17.4%

More lines, now with the values ahead:

IC50 [2]: 0.87 nM
SMILES: CCN(CC)S(=O)(=O)c1cc(C(=O)NC[C@@H]2CCCN2C(=O)C[C@H](N)[C@H]2CCc3cc(F)c(F)cc32)ccc1F

IC50 [2]: 0.87 nM
SMILES: N[C@@H](CC(=O)N1CCC[C@H]1CNC(=O)c1cc(S(=O)(=O)N2CCC2)c(F)cc1F)[C@H]1CCc2cc(F)c(F)cc21

IC50 [2]: 0.87 nM
SMILES: N[C@@H](CC(=O)N1CCC[C@H]1CNC(=O)c1cccnc1)[C@H]1CCc2cc(F)c(F)cc21

Ratio IC50 [5]: > 1000
half-life [6]: < 1440 min
SMILES: N#C[C@@H]1CCCN1C(=O)[C@@H](N)CCC(=O)N1CCn2c(nnc2C(F)(F)F)C1.O=C(O)C(F)(F)F

IC50 [2]: 0.87 nM
SMILES: N[C@@H](CC(=O)N1CCC[C@H]1CNC(=O)c1ccc(F)c(S(N)(=O)=O)c1)[C@H]1CCc2cc(F)c(F)cc21

Ratio IC50 [5]: > 1000
half-life [6]: < 1440 min
SMILES: N#C[C@@H]1CCCN1C(=O)[C@@H](N)CCC(=O)N1CCn2nc(C(F)(F)F)nc2C1.O=C(O)C(F)(F)F

IC50 [2]: 0.87 nM
SMILES: N[C@@H](CC(=O)N1CCC[C@H]1CNC(=O)c1cc(S(=O)(=O)N2CCOCC2)c(F)cc1F)[C@H]1CCc2cc(F)c(F)cc21

IC50 [2]: 0.87 nM
SMILES: N[C@@H](CC(=O)N1CCC[C@H]1CNC(=O)c1cc(S(=O)(=O)N2CCCCC2)c(F)cc1F)[C@H]1CCc2cc(F)c(F)cc21

AUC [10]: 17400 ng·h/mL
SMILES: N#C[C@@H]1CCCN1C(=O)CCCNC(=O)c1ccc(C(F)(F)F)cc1

IC50 [2]: 0.87 nM
SMILES: CCN(CC)S(=O)(=O)c1cc(C(=O)NC[C@@H]2CCCN2C(=O)C[C@H](N)[C@H]2CCc3cc(F)c(F)cc32)c(F)cc1F

IC50 [2]: 0.87 nM
SMILES: N[C@@H](CC(=O)N1CCC[C@H]1CNC(=O)c1cccc(S(N)(=O)=O)c1)[C@H]1CCc2cc(F)c(F)cc21

AUC [10]: 54000 ng·h/mL
SMILES: N#Cc1ccc(C(=O)NCCCC(=O)N2CCC[C@H]2C#N)cc1

Ratio IC50 [5]: > 1000
half-life [6]: < 1440 min
SMILES: N#C[C@@H]1CCCN1C(=O)[C@@H](N)CCC(=O)N1CCn2cnnc2C1

Ratio IC50 [5]: > 1000
half-life [6]: < 1440 min
SMILES: N#C[C@@H]1CCCN1C(=O)[C@@H](N)CCC(=O)N1CCn2cc(C(F)(F)F)nc2C1.O=C(O)C(F)(F)F

IC50 [2]: 0.87 nM
SMILES: CCN(CC)S(=O)(=O)c1cccc(C(=O)NC[C@@H]2CCCN2C(=O)C[C@H](N)[C@H]2CCc3cc(F)c(F)cc32)c1
